Drawing on patent publication US8173635B2, “Kinase inhibitors” (Vertex Pharmaceuticals Incorporated, priority 2007, dated 2012), this text covers Ki for 19 compounds.

Assay type in all cases: biochemical
Test [1] has as its target PKC delta kinase (Homo sapiens, UniProt Q05655). The test is described as follows: PKC delta kinase inhibition, coupled-enzyme NADH absorbance assay (Ki). The conditions noted are these: 150 μM ATP, 46 nM PKC delta, 30° C.; read-out: Ki PKC delta. The gist of the method: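 Assay buffer was 100 mM HEPES pH 7.5, 10 mM MgCl2, 25 mM NaCl, 0.1 mM EDTA, 0.01% Brij. Enzyme buffer was equilibrated with compound in DMSO for 10 min at 30 °C. Ki values were derived by non-linear regression of initial rate data.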

Test [2] concerns the target PKC theta kinase (Homo sapiens, UniProt Q04759). Put plainly: PKC theta kinase inhibition, coupled-enzyme NADH absorbance assay (Ki). Particulars: 240 μM ATP, 18 nM PKC theta, 30° C.; read-out: Ki PKC theta. The gist of the method:
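Coupled-enzyme kinase assay following NADH absorbance at 340 nm, in 100 mM HEPES pH 7.5, 10 mM MgCl2, 25 mM NaCl, 0.1 mM EDTA, 0.01% Brij. Compound in DMSO preincubated with enzyme 10 min at 30 °C. Ki from initial rates by non-linear regression.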

In test [3] the target is PKC alpha kinase (Homo sapiens, UniProt P17252). Put plainly: PKC alpha kinase inhibition, coupled-enzyme NADH absorbance assay (Ki). The conditions noted are these: 130 μM ATP, 4.5 nM PKC alpha, 30° C.; read-out: Ki PKC alpha.

Where only a bound is given, the exact number is not on record here.

PKC theta kinase, sequence (Q04759 whole entry): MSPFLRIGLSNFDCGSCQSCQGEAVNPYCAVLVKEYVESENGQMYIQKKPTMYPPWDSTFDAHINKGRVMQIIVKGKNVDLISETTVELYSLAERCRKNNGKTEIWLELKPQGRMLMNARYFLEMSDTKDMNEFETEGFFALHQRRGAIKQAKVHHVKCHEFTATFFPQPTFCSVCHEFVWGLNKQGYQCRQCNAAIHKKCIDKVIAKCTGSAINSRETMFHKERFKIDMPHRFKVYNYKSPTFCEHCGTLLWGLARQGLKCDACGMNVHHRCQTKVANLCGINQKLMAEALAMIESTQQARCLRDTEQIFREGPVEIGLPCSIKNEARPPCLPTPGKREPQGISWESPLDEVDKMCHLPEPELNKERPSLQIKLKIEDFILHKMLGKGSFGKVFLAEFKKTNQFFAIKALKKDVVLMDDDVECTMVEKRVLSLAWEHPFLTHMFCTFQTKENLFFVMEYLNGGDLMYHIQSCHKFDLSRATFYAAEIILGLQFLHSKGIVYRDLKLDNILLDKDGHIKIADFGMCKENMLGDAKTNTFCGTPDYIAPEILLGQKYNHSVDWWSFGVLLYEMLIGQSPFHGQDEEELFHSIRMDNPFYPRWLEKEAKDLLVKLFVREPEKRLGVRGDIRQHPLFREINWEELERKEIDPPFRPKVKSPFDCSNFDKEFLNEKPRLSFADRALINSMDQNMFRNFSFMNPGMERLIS
PKC delta kinase, sequence (Q05655 whole entry): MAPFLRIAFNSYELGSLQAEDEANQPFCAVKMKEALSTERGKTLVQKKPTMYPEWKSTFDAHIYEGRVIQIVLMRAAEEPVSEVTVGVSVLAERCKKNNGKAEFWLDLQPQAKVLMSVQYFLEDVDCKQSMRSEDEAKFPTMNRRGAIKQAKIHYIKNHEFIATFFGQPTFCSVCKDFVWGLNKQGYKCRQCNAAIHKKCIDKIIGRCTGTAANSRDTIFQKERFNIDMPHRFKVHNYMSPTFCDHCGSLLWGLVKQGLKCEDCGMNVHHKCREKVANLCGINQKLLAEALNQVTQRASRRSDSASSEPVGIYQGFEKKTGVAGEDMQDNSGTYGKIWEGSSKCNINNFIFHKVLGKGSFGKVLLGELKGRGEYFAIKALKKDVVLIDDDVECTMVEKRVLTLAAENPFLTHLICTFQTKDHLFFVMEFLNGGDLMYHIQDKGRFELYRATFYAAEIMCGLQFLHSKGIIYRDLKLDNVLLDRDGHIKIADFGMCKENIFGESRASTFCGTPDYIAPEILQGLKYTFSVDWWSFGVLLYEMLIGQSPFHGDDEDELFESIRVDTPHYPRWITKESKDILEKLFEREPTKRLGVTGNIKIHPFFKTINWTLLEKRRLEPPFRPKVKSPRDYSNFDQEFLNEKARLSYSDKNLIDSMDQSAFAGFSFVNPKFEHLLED

With `NCC1(c2cccc(-c3ccnc4[nH]nc(C(F)(F)F)c34)c2)CCOCC1` [Compound 214], the Ki was below 500 nM in test [1], below 50 nM in test [2] and below 500 nM in test [3].

For `CCCc1cc(-c2ccnc3[nH]nc(Cl)c23)cc(C(C)(CC)CN)c1` (stereo not drawn) [Compound 210], the Ki in test [1] was below 2800 nM; in test [2], below 50 nM; in test [3] it was below 500 nM.

For the compound `CCC(C)(CN)c1cc(Cl)cc(-c2ccnc3[nH]ncc23)c1` (stereo not drawn) [Compound 133], the Ki in test [1] is below 500 nM; in test [2], below 50 nM; in test [3] it was below 500 nM.

With `N#CC1(c2cccc(-c3ccnc4[nH]ncc34)c2)CC1` [Compound 98], the Ki in test [1] was below 500 nM; in test [2], below 50 nM; in test [3], below 2800 nM.

With `CCC(C)(CN(C)C)c1cccc(-c2ccnc3[nH]ncc23)c1` (stereo not drawn) [Compound 138, 2-(3-(1H-pyrazolo[3,4-b]pyridin-4-yl)phenyl)-N,N,2-trimethylbutan-1-amine], the Ki in test [1] is below 2800 nM; in test [2] it was below 500 nM; in test [3], below 2800 nM.

As to `COCC[C@@](C)(CN)c1cccc(-c2ccnc3[nH]nc(C(F)(F)F)c23)c1` [Compound 286], the Ki was below 500 nM in test [1], below 50 nM in test [2] and below 500 nM in test [3].

Consider `NCC1(c2cccc(-c3ccnc4[nH]ncc34)c2)CCC(F)(F)CC1` [Compound 181], for which the values for the Ki in test [1], in test [2] and in test [3] were below 2800 nM, below 500 nM and below 2800 nM, respectively.

Take `C=CCC1(c2cc(C)cc(-c3ccnc4[nH]ncc34)c2)CN(C)C(=O)O1` (stereo not drawn) [Compound 326]: the Ki in test [1] is above 1200 nM; in test [2], below 500 nM; in test [3], above 1200 nM.

As for `CC(F)c1cc(-c2ccnc3[nH]ncc23)cc(C(C)(C)C#N)c1` (stereo not drawn) [Compound 88], the Ki is below 2800 nM in test [1], below 50 nM in test [2] and below 2800 nM in test [3].

Take `CCCc1cc(-c2ccnc3[nH]ncc23)cc(C(C)(C)CC#N)c1` [Compound 218]: the Ki in test [1] was above 2000 nM; in test [2], below 500 nM; in test [3], below 2800 nM.

As for `NCC1(c2cccc(-c3ccnc4[nH]ncc34)c2)CCCC1` [Compound 50], the values for the Ki in test [1], in test [2] and in test [3] were below 500 nM, below 50 nM and below 2800 nM, respectively.

For `CC(C#N)(c1cccc(-c2ccnc3[nH]ncc23)c1)C1CCCC1` (stereo not drawn) [Compound 72], the Ki in test [1] was above 2800 nM; in test [2], below 2800 nM; in test [3], above 2800 nM.

As to `C=Cc1cc(-c2ccnc3[nH]ncc23)cc(C(C)(C)CN)c1` [Compound 36], the Ki is below 2800 nM in test [1], below 500 nM in test [2] and below 2800 nM in test [3].

Take `NCC1(c2cccc(-c3ccnc4[nH]ncc34)c2)CC=C(F)CC1` (stereo not drawn) [Compound 184]: the Ki is below 500 nM in test [1], below 50 nM in test [2] and below 500 nM in test [3].

Consider `CC(O)c1cc(-c2ccnc3[nH]ncc23)cc(C(C)(C)CN)c1` (stereo not drawn) [Compound 39], for which the results for the Ki in test [1], in test [2] and in test [3] were above 2800 nM, below 500 nM and above 2800 nM, respectively.

As for `FC(F)C1(c2cccc(-c3ccnc4[nH]ncc34)c2)CCNC1` (stereo not drawn) [Compound 201], the Ki in test [1] is below 500 nM; in test [2] it was below 50 nM; in test [3], below 500 nM.

Consider `CCc1cc(-c2ccnc3[nH]nc(C(F)(F)F)c23)cc(C(C)(CC)CN)c1` (stereo not drawn) [Compound 271], for which the Ki in test [1] is below 500 nM; in test [2] it was below 50 nM; in test [3], below 500 nM.

For `CCC(C)(CN)c1cccc(-c2ccnc3[nH]nc(C)c23)c1` (stereo not drawn) [Compound 212, 2-methyl-2-(3-(3-methyl-1H-pyrazolo[3,4-b]pyridin-4-yl)phenyl)butan-1-amine], the Ki in test [1], in test [2] and in test [3] was below 50 nM in each case.

Regarding `CC(CN)(Cc1cccnc1)c1cccc(-c2ccnc3[nH]ncc23)c1` (stereo not drawn) [Compound 171], the Ki in test [1] is below 500 nM; in test [2], below 50 nM; in test [3] it was below 500 nM.
